According to PubChem BioAssay AID1418 (Emory University Molecular Libraries Screening Center, 2008):
Calls of active or inactive are those of the source. How the calls were made is not given here.

target: Induced myeloid leukemia cell differentiation protein Mcl-1 (Homo sapiens) (UniProt Q07820); test: blockers of Bid binding to Mcl-1 – biochemical, TR-FRET, dose response (AID 1418); conditions: Mcl-1/Bid peptide binding, TR-FRET (europium/Dy647), 2 hr
Sequence (Q07820 whole entry, looked up): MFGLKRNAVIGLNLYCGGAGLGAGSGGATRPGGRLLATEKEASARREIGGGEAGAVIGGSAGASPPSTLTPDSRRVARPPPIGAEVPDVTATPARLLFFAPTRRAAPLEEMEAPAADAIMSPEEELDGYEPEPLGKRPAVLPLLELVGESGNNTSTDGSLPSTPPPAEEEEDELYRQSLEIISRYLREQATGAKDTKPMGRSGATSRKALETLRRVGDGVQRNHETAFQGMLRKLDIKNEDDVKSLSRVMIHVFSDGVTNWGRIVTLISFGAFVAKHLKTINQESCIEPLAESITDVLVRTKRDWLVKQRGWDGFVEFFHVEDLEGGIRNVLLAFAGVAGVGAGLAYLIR

Compound	IC50
CN1C(=S)N(c2cccnc2)C(=O)/C1=C\c1ccc(N(C)C)cc1	9 µM
CS(=O)(=O)NCc1ccc(C(=O)NCCOc2ccccc2)cc1	> 54 µM (inactive)
Cc1ccc(Cn2nc(C)c(NC(=O)CSc3nc4c(c(C(F)(F)F)n3)CCc3ccccc3-4)c2C)cc1	1.91 µM
COc1ccc2[nH]c(=O)c(CNC3CCCCC3)cc2c1	> 54 µM (inactive)
COc1ccccc1NC(=O)c1sc2ncn(Cc3ccc(C)cc3)c(=O)c2c1C	7.75 µM
CC(C)(C)c1c(Cl)c(O)c(-c2ccccc2)c(=O)n1-c1ccccc1	0.68 µM
CCS(=O)(=O)NCc1ccc2c(c1)cc(C)n2C	> 54 µM (inactive)
COc1cc2c(cc1OC)C(Nn1cnnc1)=NC1(CCCC1)C2	> 54 µM (inactive)
N=C1/C(=C/c2ccc(-c3cccc(C(=O)O)c3)o2)C(=O)N=C2SC=C(c3ccccc3)N12	1.02 µM
O=C(COc1cccnc1[N+](=O)[O-])c1ccc(Cl)s1	> 54 µM (inactive)
Cc1ccc(S(=O)(=O)/N=S(\C)C(C)C)cc1 (configuration not stated)	> 54 µM (inactive)
COc1cc(C(=O)N/N=C\c2ccccc2)c([N+](=O)[O-])c(OC)c1OC	> 54 µM (inactive)
O=C(CNc1ccc2ccccc2c1)N/N=C/c1ccc([N+](=O)[O-])o1	> 54 µM (inactive)
CCOc1ccc(-c2ccc(/C=C3/C(=N)N4C(C)=CSC4=NC3=O)o2)c([N+](=O)[O-])c1	0.83 µM
O=C(CSc1nc(-c2ccccc2)cc(C(F)(F)F)n1)N1CCOCC1	> 54 µM (inactive)
CC(=O)c1ccc(Oc2ccc(C(C)=O)cc2)cc1	> 54 µM (inactive)
Nc1nc(Nc2cccc(F)c2)nc(N2CCOCC2)c1[N+](=O)[O-]	> 54 µM (inactive)
Cc1nc(N)sc1-c1csc(Nc2ncccn2)n1	3.3 µM
Cc1cccc2c3nc4ccccc4nc3n(CCCN3C(=O)c4ccccc4C3=O)c12	> 54 µM (inactive)
CCCOc1cccc(CN2CCCCC2c2cccnc2)c1 (configuration not stated)	> 54 µM (inactive)
COc1cccc2c1nc(C)c1cc(C)oc12	> 54 µM (inactive)
CC1=NN(c2ccccc2)C(=O)/C1=C\c1cn(-c2ccccc2)nc1C	> 54 µM (inactive)
COC(=O)c1sccc1NC(=O)c1cc(C)on1	> 54 µM (inactive)
CCOc1cccc(CNCCO)c1OCc1ccc(Cl)cc1Cl	> 54 µM (inactive)

Compound	IC50
COc1cc2cc3c(N)c(C(=O)Nc4sc(C)c(C)c4C#N)sc3nc2cc1OC	0.97 µM
CCc1nnc(NS(=O)(=O)c2ccc(NC(=S)NC(=O)/C=C/c3ccc(C(C)C)cc3)cc2)s1	3.99 µM
O=[N+]([O-])c1ccc(NC(=S)NCCc2ccc(Cl)cc2)cc1	> 54 µM (inactive)
COC(=O)c1ccc(=O)c2nc3/c(=C/O)c(O)cc(=O)c3[nH]c12	3.23 µM
CCC(CC)NC(=O)COC(=O)c1cc(Br)ccc1Cl	> 54 µM (inactive)
COc1ccc(-c2ccc(/C=C3/C(=N)N4C=CSC4=NC3=O)o2)c([N+](=O)[O-])c1	1.46 µM
CCCC(=O)Nc1ccc2oc(-c3cccnc3)nc2c1	> 54 µM (inactive)
Clc1ccccc1-c1nc2ccccc2[nH]1	> 54 µM (inactive)
CC(CCC(=O)Nc1nncs1)C(=O)O (configuration not stated)	> 54 µM (inactive)
CCN1C(=O)/C(=C/c2cccs2)SC1=Nc1ccc(OC)cc1	> 54 µM (inactive)
O=C(Nc1nccs1)c1cccc(N2C(=O)c3cccc4c([N+](=O)[O-])ccc(c34)C2=O)c1	0.53 µM
O=c1[nH]c(O)c(/C=C2/C=CC(c3cc(Cl)ccc3Cl)=N2)c(=O)[nH]1	1.07 µM
CC(=O)C1=C(C)NC(SCC(N)=O)=C(C#N)C1c1cccnc1 (configuration not stated)	> 54 µM (inactive)
O=C(CCN1C(=O)/C(=C/c2cccc(Br)c2)SC1=S)NNC(=O)c1cccnc1	4.52 µM
O=C1Nc2ccccc2/C1=N/N=C/c1ccc(-c2ccc([N+](=O)[O-])cc2)o1	0.59 µM
CC(=O)Oc1ccc(Cl)cc1/C=C/c1ccc2ccccc2n1	> 54 µM (inactive)
Nc1ccc(C(=O)N/N=C\c2cc(N=Nc3cccc4ccccc34)ccc2O)cc1	12 µM
Cc1ccc(C2C3=C(Nc4[nH]n(-c5ccccc5)c(=O)c42)c2ccccc2C3=O)cc1 (configuration not stated)	0.74 µM
COc1cccc(OC)c1C(=O)N1CCN(Cc2ccncc2)CC1	> 54 µM (inactive)
C#CCOCCOCCOCCNc1nc(N2CCN(C(=O)C(Cc3ccc(O)cc3)n3cc(C(N)CC(C)C)nn3)CC2)nc(N2CCN(C(=O)C(Cc3cc4ccccc4[nH]3)n3cc(C(N)Cc4ccc(O)cc4)nn3)CC2)n1 (configuration not stated)	> 54 µM (inactive)
COCCn1cc(C(=O)N2CCC(C)CC2)c2c3ccccc3n(C)c2c1=O	inactive
O=C(c1cccc(Cl)c1)N1CCN(Cc2ccccc2F)CC1	> 54 µM (inactive)
CCOC(=O)CSc1nc(C2CC2)cc(-c2ccc(Cl)cc2)c1C#N	> 54 µM (inactive)
O=C(COc1ccc2c(c1)CCC2)N1CCc2ccccc21	> 54 µM (inactive)

Compound	IC50
CSC1=N/C(=C\c2ccccc2F)C(=O)S1	> 54 µM (inactive)
O=C(O)c1[nH]c2ccccc2c1C=NCc1ccccc1Cl	> 54 µM (inactive)
CCCCCC#CCC#CCC#CCC#CCCCC(=O)O	1.78 µM
COc1cc(OC)c2c(O)c3c(c(-c4c5c(c(O)c6c(OC)cc(OC)cc46)CO[C@@H](C)[C@H]5O)c2c1)[C@H](O)[C@H](C)OC3	14.4 µM
Cc1cc(C)n(Cc2cccc(F)c2)c(=O)c1C#N	> 54 µM (inactive)
CC1(c2ccccc2)CC(C)(C)N2C(=O)/C(=C3\SC(=S)NC3=O)c3cccc1c32 (configuration not stated)	2.16 µM
O=C(NC(=S)Nc1ccc2c(c1)OCCO2)c1ccccc1F	> 54 µM (inactive)
Cc1cc(/C=N/NC(=O)c2cccs2)c(C)n1-c1ccccc1	> 54 µM (inactive)
CC(NC(=O)NC1CCCCC1)C(c1cccs1)N1CCN(c2ccccc2)CC1 (configuration not stated)	> 54 µM (inactive)
Cc1nc(COC(=O)c2cc(O)c3ccccc3c2O)cs1	0.9 µM
C=CCOc1c(OC)cc(/C=N/Nc2cccc(C(=O)O)c2)c(Br)c1Br	18.3 µM
O=P(O)(O)C#Cc1ccccc1	> 54 µM (inactive)
CC(C)(C)c1cc(-c2csc(Nc3ccccc3)[n+]2Cc2ccc(C(=O)O)cc2)cc(C(C)(C)C)c1O	0.66 µM
CCOC(=O)c1c(NC(=O)N/N=C/c2ccc(O)c(OC)c2)sc(C(C)=O)c1C	0.53 µM
COc1cccc(NC(=O)C2c3cc(OC)c(OC)cc3C(=O)N(C)C2c2cccnc2)c1 (configuration not stated)	> 54 µM (inactive)
O=C(Nc1ccc(CCC(=O)N2CCCC2)cc1)c1ncn[nH]1	> 54 µM (inactive)
COC(=O)/C=C1/SC(=Nc2ccc(C)cc2C)NC1=O	> 54 µM (inactive)
C[C@@H](C(=O)Nc1nc2ccc(F)cc2s1)N1C(=O)C2CC=CCC2C1=O (some centres not stated)	> 54 µM (inactive)
Cc1ccc(CNC(=O)c2ccc3nc4[nH]c5ccccc5c4nc3c2)cc1	6.82 µM
C/C(=N/NC(=O)c1ccccn1)c1ccc(O)cc1	> 54 µM (inactive)
COc1ccc2nc(C)cc(SCC(=O)Nc3c(C)cccc3C)c2c1	10.5 µM
O=C(NC(=S)NCc1cccnc1)c1ccc([N+](=O)[O-])cc1	> 54 µM (inactive)
O=C(Nc1nccs1)C1CC(=O)N(Cc2ccco2)C1 (configuration not stated)	> 54 µM (inactive)
COc1ccc(-c2cc(C(F)(F)F)nc(N3CCOCC3)n2)cc1OC	> 54 µM (inactive)
